Measured values as given in patent US9028856B2, “Synergistic pesticide compositions” (priority 2008, dated 2015).
Like-named read-outs stand apart in the source and are kept apart here.

Assays:
[1] = tested on: Odorous House ant, Tapinoma sessile; assay: Knockdown/mortality of ant workers under continuous exposure on treated glazed tile; type: in vivo; conditions: glazed tile
Outline: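 Each tile surface (about 5″×5″) was treated, left to dry overnight and tested in a minimum of three replicates.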

[2] = tested on: Red Imported Fire ant (RIFA), Solenopsis invicta; assay: as above; type: in vivo; conditions: glazed tile
Source text: Treatments were allowed to dry overnight. […] Treatments were replicated minimum three times.
Treatments were allowed to dry overnight. […] Treatments were replicated a minimum of three times.

[3] = type: physicochemical; conditions: classified from Log P
[4] = tested on: Musca domestica, resistant strain Reichswald; assay: Efficacy of formulations on surfaces (glazed/unglazed tiles), house flies, continuous exposure; type: in vivo; conditions: for % KD and Mortality 15′ / % KD and Mortality 30′ / % KD and Mortality 1 h / % KD and Mortality 2 h / % KD and Mortality 3 h / % KD and Mortality 4 h / % KD and Mortality 6 h / % KD and Mortality 24 h: Table 115, EC formulation, continuous exposure
Procedure: (§1) All surfaces were provided with talcum-coated glass rings (diameter 9.5 cm, height 5.5 cm) one day later.
The test insects were anesthetized with CO2, 20 individuals were placed onto the treated surfaces and the glass ring was covered with wire gauze ring. […]
(§2) Each test consisted of at least one replicate and any additional replicates are noted.
(§3) Test Insects: House flies (Musca domestica) of both sexes, susceptible strain WHO(N) and resistant strain Reichswald
(§4) Evaluation: Mortality was evaluated cumulatively at different times. […]
(§5) Test Insects: Culex quinquefasciatus (adults) (3 minutes exposure time according to USDA Petri Dish Method), Musca domestica (adults), susceptible and resistant strain, Blattella germanica (males), Cimex lectularius (adults) (all: continuous exposure time)
(§6) Application: The EC formulation (diluted with water 1:9) were applied as 0.85 ml solutions onto glazed tiles (15 cm×15 cm)

[5] = tested on: Musca domestica, susceptible strain WHO(N); assay: as above; type: in vivo; conditions: for % KD and Mortality 15′ / % KD and Mortality 30′ / % KD and Mortality 1 h / % KD and Mortality 2 h / % KD and Mortality 3 h / % KD and Mortality 4 h / % KD and Mortality 6 h / % KD and Mortality 24 h: Table 114, EC formulation, continuous exposure
Procedure: A flat fan nozzle (type SS 8003-E) in a spray cabin was moved automatically over a defined area where the solutions were sprayed very evenly onto the surfaces. The formulation was mixed with water to give a concentration which corresponded to the desired quantity of a.i./m^2. A defined quantity of this solution was sprayed onto the area (nominal 350 liter/ha=0.77 ml per surface).
as §1
The test insects were anesthetized with CO2, 20 individuals were placed onto the treated surfaces and the glass ring was covered with wire gauze ring.
Knock down was determined after 15 and 30′, 1, 2, 4 and 6 hours, mortality after 1 day exposure.
as §2, §3, §4, §5, §6
(§7) Evaluation: Knock down after 15, and 30 minutes, 1, 2, 3, 4, 6 and 24 hours (mortality)
Test Insects: Culex quinquefasciatus (adults, susceptible) (3 minutes exposure time according to USDA Petri Dish Method), Musca domestica (adults, susceptible and resistant), Blattella germanica (males, susceptible) (both: continuous exposure time)
Formulations: Insecticide with or without 10% Compound A (as EC), to be diluted with water (1 part formulation+9 parts water)
Evaluation: Knock down after 3, 9 (mosquitoes only), 15, and 30 minutes, 1, 2, 3, 4 and 24 hours (mortality) […]

[6] = tested on: Cimex lectularius (adults); assay: Efficacy on glazed tiles (acetone solutions or EC formulations), continuous exposure; type: in vivo; conditions: for mortality at 50 mg/m2: Cimex lectularius, read-out: % KD and Mortality
Procedure: as §5, §6, §7
Test Insects: Culex quinquefasciatus (adults) (3 minutes exposure time according to USDA Petri Dish Method), Cimex lectularius (adults), Acheta domesticus (middle nymphs) (both: continuous exposure time)
Application: The active ingredients were applied as 1 ml acetone solutions onto glazed tiles (15 cm×15 cm)
Evaluation: Knock down after 3, 9 (mosquitoes only), 15, and 30 minutes, 1, 2, 3, 4 and 24 hours (mortality)
Test Insects: Culex quinquefasciatus (adults) (3 minutes exposure time according to USDA Petri Dish Method), Cimex lectularius (adults), (continuous exposure time)
Test Insects: Cimex lectularius, Culex quinquefasciatus, Musca domestica (all adults, susceptible strains)
Application: The active ingredients were applied as 1 ml acetone solutions onto glazed tiles (15 cm×15 cm), continuous exposure time

[7] = Table 60, Red Imported Fire ant, continuous exposure
[8] = 0.1% = 50 mg Bendiocarb/m^2 on glazed tiles
[9] = 30 min, Table 51, fipronil/adjuvant in acetone
[10] = 60 min, Table 51, fipronil/adjuvant in acetone
[11] = 2 hr, Table 51, fipronil/adjuvant in acetone
[12] = Table 51, fipronil/adjuvant in acetone
[13] = Table 52, fipronil/adjuvant in acetone
[14] = 0.1% = 50 mg imidacloprid/m^2 on glazed tiles
[15] = 0.001% deltamethrin in acetone on glazed tiles, with or without adjuvant

Which results are given for `CC[S+]([O-])c1c(C#N)nn(-c2c(Cl)cc(C(F)(F)F)cc2Cl)c1N` (stereo not shown) [Ethiprole (1%)]?
Average % Knockdown & Mortality after 30 min ([1]; Table 59, Odorous House ant, continuous exposure, 30 min): 0%; Average % Knockdown & Mortality after 45 min ([1]; Table 59, Odorous House ant, continuous exposure, 45 min): 0%; Average % Knockdown & Mortality after 60 min ([1]; Table 59, Odorous House ant, continuous exposure, 60 min): 3%; Average % Knockdown & Mortality after 2 hr ([1]; Table 59, Odorous House ant, continuous exposure, 2 hr): 7%; Average % Knockdown & Mortality after 15 min ([1]; Table 59, Odorous House ant, continuous exposure, adjuvant = Compound A 1% + Compound B 0.5%, 15 min): 0%; Average % Mortality after 1 hr ([2]; Table 60, Red Imported Fire ant, continuous exposure, 1 hr): 0%; Average % Mortality after 1.5 hr ([2]; Table 60, Red Imported Fire ant, continuous exposure, 1.5 hr): 0%; Average % Mortality after 2 hr [2, 7]: 0%; Average % Mortality after 3 hr [2, 7]: 10%; Average % Mortality after 30 min ([2]; Table 60, Red Imported Fire ant, continuous exposure, adjuvant = Compound A 1% + Compound B 0.5%): 0%

Which results are given for `CNC(=O)Oc1cccc2c1OC(C)(C)O2` [bendiocarb]?
Likelihood of Direct Insect Cuticular Penetration [3]: Slow (classified as “SLOW” when the compound has a Log P value of about <2.0); % KD and Mortality 15′ [4, 8]: 0%; % KD and Mortality 30′ [4, 8]: 0%; % KD and Mortality 1 h [4, 8]: 0%; % KD and Mortality 2 h [4, 8]: 0%; % KD and Mortality 3 h [4, 8]: 0%; % KD and Mortality 4 h [4, 8]: 0%; % KD and Mortality 6 h [4, 8]: 0%; % KD and Mortality 24 h [4, 8]: 5%; toxicity / efficacy of the substance alone (summary in words) ([1]; odorous house ant): no KD/mortality; % KD and Mortality 15′ [5, 8]: 25%; % KD and Mortality 30′ [5, 8]: 65%; % KD and Mortality 1 h [5, 8]: 85%; % KD and Mortality 2 h [5, 8]: 85%; % KD and Mortality 3 h [5, 8]: 85%; % KD and Mortality 4 h [5, 8]: 85%; % KD and Mortality 6 h [5, 8]: 85%; % KD and Mortality 24 h [5, 8]: 95%; % KD and Mortality ([6]; 30′, on tiles, insecticide alone (imidacloprid 50 mg/m^2, Bendiocarb 50 mg/m^2, Ethiprole 10 mg/m^2, DTM 1 mg/m^2), no Compound A): 100%; mortality at 50 mg/m2 ([6]; 1 h): 100%; mortality at 50 mg/m2 ([6]; 2 h): 100%; mortality at 50 mg/m2 ([6]; 3 h): 100%; mortality at 50 mg/m2 ([6]; 4 h): 100%; mortality at 50 mg/m2 ([6]; 6 h): 100%; mortality at 50 mg/m2 ([6]; 24 h): 100%; mortality at 50 mg/m2 [6]: 100%

What does the source list for `N#Cc1nn(-c2c(Cl)cc(C(F)(F)F)cc2Cl)c(N)c1[S+]([O-])C(F)(F)F` (stereo not shown) [Fipronil (.001%)]?
Average % Mortality after 30 min [1, 9]: 0%; Average % Mortality after 60 min [1, 10]: 0%; Average % Mortality after 2 hr [1, 11]: 0%; Average % Mortality after 24 hr [1, 12]: 100%; Average % Mortality after 30 min [2, 13]: 0%; Average % Mortality after 60 min [2, 13]: 0%; Average % Mortality after 2 hr [2, 13]: 0%; Average % Mortality after 3 hr [2, 13]: 25%; Average % Mortality after 24 hr [2, 13]: 100%

What does the source list for `N#Cc1nn(-c2c(Cl)cc(C(F)(F)F)cc2Cl)c(N)c1[S+]([O-])C(F)(F)F` (stereo not shown) [Fipronil (.01%)]?
Average % Mortality after 30 min [1, 9]: 0%; Average % Mortality after 60 min [1, 10]: 0%; Average % Mortality after 2 hr [1, 11]: 6%; Average % Mortality after 24 hr [1, 12]: 100%; Average % Mortality after 30 min [2, 13]: 0%; Average % Mortality after 60 min [2, 13]: 0%; Average % Mortality after 2 hr [2, 13]: 0%; Average % Mortality after 3 hr [2, 13]: 0%; Average % Mortality after 24 hr [2, 13]: 100%

What does the source list for `O=[N+]([O-])NC1=NCCN1Cc1ccc(Cl)nc1` [imidacloprid]?
Likelihood of Direct Insect Cuticular Penetration [3]: Slow (classified as “SLOW” when the compound has a Log P value of about <2.0); % KD and Mortality 15′ [4, 14]: 5%; % KD and Mortality 30′ [4, 14]: 5%; % KD and Mortality 1 h [4, 14]: 5%; % KD and Mortality 2 h [4, 14]: 5%; % KD and Mortality 3 h [4, 14]: 5%; % KD and Mortality 4 h [4, 14]: 5%; % KD and Mortality 6 h [4, 14]: 5%; % KD and Mortality 24 h [4, 14]: 20%; % KD and Mortality 15′ [5, 14]: 25%; % KD and Mortality 30′ [5, 14]: 55%; % KD and Mortality 1 h [5, 14]: 40%; % KD and Mortality 2 h [5, 14]: 95%; % KD and Mortality 3 h [5, 14]: 95%; % KD and Mortality 4 h [5, 14]: 95%; % KD and Mortality 6 h [5, 14]: 95%; % KD and Mortality 24 h [5, 14]: 100%; mortality at 50 mg/m2 ([6]; 15′, on tiles, insecticide alone (imidacloprid 50 mg/m^2, Bendiocarb 50 mg/m^2, Ethiprole 10 mg/m^2, DTM 1 mg/m^2), no Compound A): 100%; mortality at 50 mg/m2 ([6]; 1 h, on tiles, insecticide alone (imidacloprid 50 mg/m^2, Bendiocarb 50 mg/m^2, Ethiprole 10 mg/m^2, DTM 1 mg/m^2), no Compound A): 100%; mortality at 50 mg/m2 ([6]; 2 h, on tiles, insecticide alone (imidacloprid 50 mg/m^2, Bendiocarb 50 mg/m^2, Ethiprole 10 mg/m^2, DTM 1 mg/m^2), no Compound A): 100%; mortality at 50 mg/m2 ([6]; 3 h, on tiles, insecticide alone (imidacloprid 50 mg/m^2, Bendiocarb 50 mg/m^2, Ethiprole 10 mg/m^2, DTM 1 mg/m^2), no Compound A): 100%; mortality at 50 mg/m2 ([6]; 4 h, on tiles, insecticide alone (imidacloprid 50 mg/m^2, Bendiocarb 50 mg/m^2, Ethiprole 10 mg/m^2, DTM 1 mg/m^2), no Compound A): 100%; mortality at 50 mg/m2 ([6]; 6 h, on tiles, insecticide alone (imidacloprid 50 mg/m^2, Bendiocarb 50 mg/m^2, Ethiprole 10 mg/m^2, DTM 1 mg/m^2), no Compound A): 100%; mortality at 50 mg/m2 ([6]; 24 h, on tiles, insecticide alone (imidacloprid 50 mg/m^2, Bendiocarb 50 mg/m^2, Ethiprole 10 mg/m^2, DTM 1 mg/m^2), no Compound A): 100%

For `CC1(C)[C@H](C(=O)O[C@H](C#N)c2cccc(Oc3ccccc3)c2)[C@@H]1C=C(Br)Br` [deltamethrin], which “Likelihood of Direct Insect Cuticular Penetration” value [3] is on record?
The value was “Fast (classified as “FAST” when it has a Log P value of about >4.0)”.

What about the “% of the flies killed after 24 h” value ([4]; 0.02% deltamethrin in acetone on glazed tiles, with or without 1% Compound A + 0.5% Compound B) of the same compound?
Its value is 7%.

What about the “% of the flies killed after 15′” value ([5]; 0.001% deltamethrin in acetone on glazed tiles, with or without 1% Compound A + 0.5% Compound B) of the same compound?
The value was 2%.

And the “% of the flies killed after 30′” value [5, 15]?
Its value is 18%.

And the “% of the flies killed after 1 h” value [5, 15]?
The value was 58%.

What about the “% of the flies killed after 2 h” value [5, 15] of the same compound?
The value was 80%.

What about the “% of the flies killed after 3 h” value [5, 15] of the same compound?
Its value is 88%.

And the “% of the flies killed after 24 h” value [5, 15]?
Its value is 92%.

Which results are given for `CC1(C)[C@H](C(=O)O[C@H](C#N)c2cccc(Oc3ccccc3)c2)[C@@H]1C=C(Br)Br` [deltamethrin (1%)]?
Average % Mortality after 20 min ([1]; 20 min, Table 30, aqueous deltamethrin/adjuvant): 43%; Average % Mortality after 60 min ([1]; 60 min, Table 30, aqueous deltamethrin/adjuvant): 80%; Average % Mortality after 90 min ([1]; 90 min, Table 30, aqueous deltamethrin/adjuvant): 90%; Average % Mortality after 2 hr ([1]; 2 hr, Table 30, aqueous deltamethrin/adjuvant): 93%; Average % Mortality after 10 min ([2]; 10 min, Table 31, aqueous deltamethrin/adjuvant): 37%; Average % Mortality after 20 min ([2]; 20 min, Table 31, aqueous deltamethrin/adjuvant): 100%; Average % Mortality after 40 min ([2]; 40 min, Table 31, aqueous deltamethrin/adjuvant): 100%; Average % Mortality after 60 min ([2]; Table 31, aqueous deltamethrin/adjuvant): 100%
